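Compound exposure: 48 hours, 5 concentrations, 96-well plates. TGI is the concentration that stops growth completely.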
Legend:
Assay in all cases: growth of human tumour cells (NCI), 48 h
NCI-H522 lung = test system: NCI-H522 lung
LOX IMVI melanoma = test system: LOX IMVI melanoma
HOP-62 NSCLC = test system: HOP-62 NSCLC
M14 melanoma = test system: M14 melanoma
SR leukemia = test system: SR leukemia
NCI-H460 lung = test system: NCI-H460 lung
HCT-15 colon = test system: HCT-15 colon
A498 renal = test system: A498 renal
ACHN renal = test system: ACHN renal
SK-MEL-28 melanoma = test system: SK-MEL-28 melanoma
HCC-2998 colon = test system: HCC-2998 colon
IGROV1 ovarian = test system: IGROV1 ovarian
NCI-H23 lung = test system: NCI-H23 lung
OVCAR-5 ovarian = test system: OVCAR-5 ovarian
EKVX NSCLC = test system: EKVX NSCLC
CCRF-CEM leukemia = test system: CCRF-CEM leukemia
OVCAR-8 ovarian = test system: OVCAR-8 ovarian
MDA-MB-435 = test system: MDA-MB-435
TK-10 renal = test system: TK-10 renal
UACC-257 melanoma = test system: UACC-257 melanoma
SK-MEL-5 melanoma = test system: SK-MEL-5 melanoma
SNB-75 CNS = test system: SNB-75 CNS
SK-OV-3 ovarian = test system: SK-OV-3 ovarian
PC-3 prostate = test system: PC-3 prostate
COLO 205 colon = test system: COLO 205 colon
RPMI-8226 leukemia = test system: RPMI-8226 leukemia
RXF 393 renal = test system: RXF 393 renal
MALME-3M melanoma = test system: MALME-3M melanoma
OVCAR-4 ovarian = test system: OVCAR-4 ovarian
HT29 colon = test system: HT29 colon
OVCAR-3 ovarian = test system: OVCAR-3 ovarian
A549 NSCLC = test system: A549 NSCLC
MOLT-4 leukemia = test system: MOLT-4 leukemia
HL-60(TB) leukemia = test system: HL-60(TB) leukemia
SF-539 CNS = test system: SF-539 CNS
MCF7 breast = test system: MCF7 breast
SNB-19 CNS = test system: SNB-19 CNS
CAKI-1 renal = test system: CAKI-1 renal
SF-268 CNS = test system: SF-268 CNS
SN12C renal = test system: SN12C renal
NCI-H226 lung = test system: NCI-H226 lung
786-0 renal = test system: 786-0 renal
MDA-N = test system: MDA-N
SW-620 colon = test system: SW-620 colon
HOP-92 NSCLC = test system: HOP-92 NSCLC
NCI/ADR-RES ovarian = test system: NCI/ADR-RES ovarian
U251 CNS = test system: U251 CNS
K-562 leukemia = test system: K-562 leukemia
SF-295 CNS = test system: SF-295 CNS
HS 578T breast = test system: HS 578T breast
HCT-116 colon = test system: HCT-116 colon
UO-31 renal = test system: UO-31 renal
SK-MEL-2 melanoma = test system: SK-MEL-2 melanoma
KM12 colon = test system: KM12 colon
DU-145 prostate = test system: DU-145 prostate
T-47D breast = test system: T-47D breast
MDA-MB-231 breast = test system: MDA-MB-231 breast
BT-549 breast = test system: BT-549 breast

Compound: Cc1cccc2c1CC1(C2)Cc2c(C)cccc2C1=O (configuration not stated)
- TGI (NCI-H522 lung): 59.3 µM
- TGI (LOX IMVI melanoma): 38.7 µM
- TGI (HOP-62 NSCLC): 54.5 µM
- TGI (M14 melanoma): 77.7 µM
- TGI (SR leukemia): 37.4 µM
- TGI (NCI-H460 lung): 83.2 µM
- TGI (HCT-15 colon): > 100 µM
- TGI (A498 renal): 88.9 µM
- TGI (ACHN renal): 84.3 µM
- TGI (SK-MEL-28 melanoma): 56.5 µM
- TGI (HCC-2998 colon): 65.1 µM
- TGI (IGROV1 ovarian): > 100 µM
- TGI (NCI-H23 lung): > 100 µM
- TGI (OVCAR-5 ovarian): > 100 µM
- TGI (EKVX NSCLC): 72.8 µM
- TGI (CCRF-CEM leukemia): 56.9 µM
- TGI (OVCAR-8 ovarian): > 100 µM
- TGI (MDA-MB-435): 55.8 µM
- TGI (TK-10 renal): 92.1 µM
- TGI (UACC-257 melanoma): 63.5 µM
- TGI (SK-MEL-5 melanoma): 33.7 µM
- TGI (SNB-75 CNS): 70.7 µM
- TGI (SK-OV-3 ovarian): > 100 µM
- TGI (PC-3 prostate): > 100 µM
- TGI (COLO 205 colon): 29.7 µM
- TGI (RPMI-8226 leukemia): 43 µM
- TGI (RXF 393 renal): 38.1 µM
- TGI (MALME-3M melanoma): 49.7 µM
- TGI (OVCAR-4 ovarian): > 100 µM
- TGI (HT29 colon): 97.2 µM
- TGI (OVCAR-3 ovarian): 51.1 µM
- TGI (A549 NSCLC): > 100 µM
- TGI (MOLT-4 leukemia): 30.2 µM
- TGI (HL-60(TB) leukemia): 52.6 µM
- TGI (SF-539 CNS): 57.1 µM
- TGI (MCF7 breast): 94.7 µM
- TGI (SNB-19 CNS): > 100 µM
- TGI (CAKI-1 renal): 48.6 µM
- TGI (SF-268 CNS): 87.1 µM
- TGI (SN12C renal): 74.2 µM
- TGI (NCI-H226 lung): 61 µM
- TGI (786-0 renal): 70.2 µM
- TGI (MDA-N): 61.8 µM
- TGI (SW-620 colon): > 100 µM
- TGI (HOP-92 NSCLC): 41.9 µM
- TGI (NCI/ADR-RES ovarian): > 100 µM
- TGI (U251 CNS): 65.4 µM
- TGI (K-562 leukemia): 70.3 µM
- TGI (SF-295 CNS): 68.8 µM
- TGI (HS 578T breast): > 100 µM
- TGI (HCT-116 colon): 35.7 µM
- TGI (UO-31 renal): > 100 µM
- TGI (SK-MEL-2 melanoma): 38.3 µM
- TGI (KM12 colon): 51.5 µM
- TGI (DU-145 prostate): 77.3 µM
- TGI (T-47D breast): > 100 µM
- TGI (MDA-MB-231 breast): 53.7 µM

Compound: N#Cc1c(-c2ccccc2)/c(=C\Nc2ccc(F)cc2)c(=O)n2c1nc1ccccc12
- TGI (NCI-H522 lung): 34.3 µM
- TGI (LOX IMVI melanoma): > 100 µM
- TGI (HOP-62 NSCLC): 10.8 µM
- TGI (M14 melanoma): 40.4 µM
- TGI (NCI-H460 lung): > 100 µM
- TGI (HCT-15 colon): > 100 µM
- TGI (A498 renal): > 100 µM
- TGI (ACHN renal): > 100 µM
- TGI (SK-MEL-28 melanoma): > 100 µM
- TGI (HCC-2998 colon): > 100 µM
- TGI (IGROV1 ovarian): 87.3 µM
- TGI (NCI-H23 lung): > 100 µM
- TGI (OVCAR-5 ovarian): > 100 µM
- TGI (EKVX NSCLC): > 100 µM
- TGI (CCRF-CEM leukemia): > 100 µM
- TGI (OVCAR-8 ovarian): > 100 µM
- TGI (MDA-MB-435): > 100 µM
- TGI (TK-10 renal): > 100 µM
- TGI (UACC-257 melanoma): > 100 µM
- TGI (SK-MEL-5 melanoma): > 100 µM
- TGI (SNB-75 CNS): > 100 µM
- TGI (SK-OV-3 ovarian): > 100 µM
- TGI (PC-3 prostate): > 100 µM
- TGI (COLO 205 colon): > 100 µM
- TGI (RPMI-8226 leukemia): 38.5 µM
- TGI (RXF 393 renal): 52.3 µM
- TGI (MALME-3M melanoma): 52.7 µM
- TGI (OVCAR-4 ovarian): > 100 µM
- TGI (OVCAR-3 ovarian): 48.2 µM
- TGI (A549 NSCLC): > 100 µM
- TGI (SF-539 CNS): 68.4 µM
- TGI (MCF7 breast): > 100 µM
- TGI (SNB-19 CNS): > 100 µM
- TGI (CAKI-1 renal): 39.9 µM
- TGI (SF-268 CNS): > 100 µM
- TGI (SN12C renal): 82.9 µM
- TGI (NCI-H226 lung): 64.1 µM
- TGI (786-0 renal): 68.3 µM
- TGI (MDA-N): 57.9 µM
- TGI (SW-620 colon): > 100 µM
- TGI (NCI/ADR-RES ovarian): 64.9 µM
- TGI (U251 CNS): > 100 µM
- TGI (SF-295 CNS): > 100 µM
- TGI (HCT-116 colon): > 100 µM
- TGI (UO-31 renal): 45.6 µM
- TGI (SK-MEL-2 melanoma): > 100 µM
- TGI (KM12 colon): > 100 µM
- TGI (T-47D breast): > 100 µM
- TGI (BT-549 breast): > 100 µM
- TGI (MDA-MB-231 breast): > 100 µM

Source: PubChem BioAssay (NCI)
